This is an account of results in ChEMBL document CHEMBL5241136, “Design, synthesis and evaluation of heterocyclic 2-phenylacetate derivatives as water-soluble rapid recovery hypnotics” (Bioorg Med Chem Lett, 2023).

Data set [1] deals with GABA-A receptor; anion channel (Homo sapiens) (UniProt P14867+P47870+P18507+P28472+P48169+Q99928+Q9UN88+P34903+O00591+O14764+Q8N1C3+P18505+P78334+P47869+P31644+Q16445). The data set is described as follows: Inhibition of GABAA receptor (unknown origin) at 50 uM by radioligand receptor binding assay relative to control. It is filed as protein-complex assay.
Data set [2] in a line: n-Octanol/water partition coefficient, logP of the compound. The format is physicochemical.
Another data set concerns Mus musculus. The data set is described as follows: Anesthetic activity in mouse assessed as concentration required to induce hypnotic effect. The format is functional.
Data set [3] is described as follows: Toxicity in mouse assessed as lethal dose. Particulars: in vivo.
The nature of data set [4]: Therapeutic index, ratio of LD50 for toxicity in mouse to HD50 for anesthetic activity in mouse assessed as concentration required to induce hypnotic effect. Particulars: read-out: TI.
[5] abbreviates: n-octanol/water, read-out: logP.

One may read the inhibition as the share of the control response that was lost under treatment. Read a high inhibition as a strong effect. What is called logP is the decadic logarithm of the partition coefficient of the neutral form, usually between octanol and water. By ED50 is commonly meant the dose that gives a 50% effect, or the effect in half of the subjects. As to `CCOC(=O)Cc1ccc(OCC(=O)N2CCCC2)c(OCC)c1`, the inhibition in data set [1] is 26.5%. For the same molecule, in data set [2] (setting [5]), the logP is 2.1. For the same molecule, in the data set on Mus musculus, the median effective dose (ED50) stood at 56 mg/kg.

In data set [1], `CCCOC(=O)Cc1ccc(OCC(=O)N2CCCC2)c(OC)c1` had an inhibition of 72.5%. Moreover, the logP in data set [2] (setting [5]) was 1.8. For the same molecule, the ED50 in the data set with Mus musculus came out at 64.2 mg/kg.

What is called LD50 is the dose expected to kill half of the subjects tested. As for `CCCOC(=O)Cc1ccc(OCC(=O)N2CCN(C(=O)OC(C)(C)C)CC2)c(OCC)c1`, the inhibition in data set [1] was found to be 33.4%. Also, the 50% lethal dose (LD50) in data set [3] is 240 mg/kg. For the same molecule, the logP in data set [2] (setting [5]) was 2.3. Further, in the data set on Mus musculus, the ED50 turned out to be 32.9 mg/kg. The selectivity ratio in data set [4] turned out to be 7.3.

`CCOC(=O)Cc1ccc(OCC(=O)N2CCN(C(=O)OC(C)(C)C)CC2)c(OC)c1`: the inhibition in data set [1] is 55.2%. Besides, in data set [3], the 50% lethal dose (LD50) was determined as 257 mg/kg. Also, the logP in data set [2] (setting [5]) worked out at 1.5. For the same molecule, the ED50 with Mus musculus worked out at 35.2 mg/kg. Besides, the selectivity ratio in data set [4] amounted to 7.3.

On to `CCCOC(=O)Cc1ccc(OCC(=O)N2CCN(C(=O)OC(C)(C)C)CC2)c(OC)c1`, for which the inhibition in data set [1] was 36.1%. Moreover, in data set [3], the LD50 came to 340 mg/kg. Also, the logP in data set [2] (setting [5]) stood at 1.9. Moreover, in the data set on Mus musculus, the ED50 is 43.6 mg/kg. Further, the selectivity ratio in data set [4] is 7.8.

Regarding `CCOc1cc(CC(=O)OCC(F)(F)F)ccc1OCC(=O)N(CC)CC`, the logP in data set [2] (setting [5]) was 2.6.

Consider `CCCOC(=O)Cc1ccc(OCC(=O)N2CCNCC2)c(OC)c1`, for which, in data set [1], the inhibition amounted to 38.6%. Also, the log partition coefficient (logP) in data set [2] (setting [5]) came out at 1.7. Moreover, in the data set on Mus musculus, the 50% effective dose (ED50) is more than 100 mg/kg.

In turn, `CCOC(=O)Cc1ccc(OCC(=O)N2CCNCC2)c(OC)c1` yielded an inhibition in data set [1] of 44.5%. Also, the logP in data set [2] (setting [5]) turned out to be 1.5. Moreover, the ED50 in the data set on Mus musculus was more than 100 mg/kg.

For `CCOC(=O)Cc1ccc(OCC(=O)N2CCN(C(=O)OC(C)(C)C)CC2)c(OCC)c1`, the inhibition in data set [1] amounted to 45.2%. For the same molecule, in data set [3], the LD50 was determined as 217 mg/kg. For the same molecule, the logP in data set [2] (setting [5]) turned out to be 1.8. The ED50 in the data set on Mus musculus was found to be 30.6 mg/kg. In data set [4], the selectivity ratio was found to be 7.1.

Regarding `CCOc1cc(CC(=O)OC(C)C)ccc1OCC(=O)N1CCNCC1`, in data set [1], the inhibition stood at 36.4%. Further, the logP in data set [2] (setting [5]) amounted to 1.5. Further, in the data set with Mus musculus, the 50% effective dose (ED50) was more than 100 mg/kg.

In data set [1], `CCOC(=O)Cc1ccc(OCC(=O)N2CCCC2)c(OC)c1` registered an inhibition of 48.8%. Moreover, the logP in data set [2] (setting [5]) is 1.3. In addition, in the data set on Mus musculus, the ED50 was 56.8 mg/kg.

For `COc1cc(CC(=O)OC(C)C)ccc1OCC(=O)N1CCN(C(=O)OC(C)(C)C)CC1`, in data set [1], the inhibition was found to be 69.7%. For the same molecule, the LD50 in data set [3] was 264 mg/kg. The logP in data set [2] (setting [5]) worked out at 1.8. In addition, in the data set with Mus musculus, the ED50 came out at 38.2 mg/kg. In addition, the selectivity ratio in data set [4] was 6.9.

On to `COc1cc(CC(=O)OC(C)C)ccc1OCC(=O)N1CCNCC1`, for which the inhibition in data set [1] stood at 57.8%. Moreover, the logP in data set [2] (setting [5]) worked out at 1.8. For the same molecule, the ED50 in the data set with Mus musculus is more than 100 mg/kg.

In data set [1], `CCCOC(=O)Cc1ccc(OCC(=O)N2CCCC2)c(OCC)c1` gave an inhibition of 47.8%. The logP in data set [2] (setting [5]) was 2.3. For the same molecule, in the data set on Mus musculus, the ED50 worked out at 60.8 mg/kg.

Turning to `CCOC(=O)Cc1cc(OCC)c(OCC(=O)N(CC)CC)cc1F`, the logP in data set [2] (octanol/water) is recorded as 2.1.

`CCCOC(=O)Cc1ccc(OCC(=O)N2CCOCC2)c(OC)c1`: the inhibition in data set [1] was 46.3%. In addition, the 50% lethal dose (LD50) in data set [3] stood at 339 mg/kg. Moreover, the logP in data set [2] (setting [5]) amounted to 1.5. Further, in the data set with Mus musculus, the ED50 was found to be 52.9 mg/kg. The selectivity ratio in data set [4] is 6.4.

The molecule `CCOC(=O)Cc1ccc(OCC(=O)N2CCOCC2)c(OC)c1` yielded an inhibition in data set [1] of 52.9%. In addition, in data set [3], the LD50 is 278 mg/kg. Also, the logP in data set [2] (setting [5]) was 1.4. In the data set with Mus musculus, the ED50 is 44.8 mg/kg. Also, the selectivity ratio in data set [4] stood at 6.2.

The molecule `CCOC(=O)Cc1ccc(OCC(=O)N2CCNCC2)c(OCC)c1` yielded an inhibition in data set [1] of 65.2%. Besides, the logP in data set [2] (setting [5]) came to 2. Besides, the ED50 in the data set on Mus musculus was more than 100 mg/kg.

Regarding `COc1cc(CC(=O)OC(C)C)ccc1OCC(=O)N1CCCC1`, the inhibition in data set [1] worked out at 55.6%. The log partition coefficient (logP) in data set [2] (setting [5]) was found to be 1.9. In the data set on Mus musculus, the ED50 was found to be 59.9 mg/kg.

Molecule `CCCOC(=O)Cc1ccc(OCC(=O)N2CCNCC2)c(OCC)c1` displayed an inhibition in data set [1] of 23.1%. Moreover, the log partition coefficient (logP) in data set [2] (setting [5]) amounted to 1.7. In addition, in the data set with Mus musculus, the 50% effective dose (ED50) was more than 100 mg/kg.
